Where a name gives a salt, the structure may show the parent alone. Read-outs that look alike come from different tables or passages of the source.
Experiments:
[1] = target: T1, human norepinephrine transporter (hNET) (Homo sapiens, UniProt P23975); assay: hNET receptor binding ([125I]-RTI-55 displacement, membranes of transfected HEK-293 cells); conditions: HEK-293 membranes, Ki from IC50 by Cheng-Prusoff, read-out: NET Ki
T1 construct: expressed in transfected cells; host or cells: HEK-293 cells (membrane preparation)
Method in brief: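 Membranes from HEK-293 cells expressing human NET were incubated 90 min at room temperature with 50 pM [125I]-RTI-55 and compound (10^−5 to 10^−12 M) in Krebs-HEPES buffer, pH 7.4. Bound radioligand was counted after filtration, with nonspecific binding defined by 10 μM desipramine. IC50 was converted to Ki by Cheng-Prusoff.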

[2] = target: T2, human serotonin transporter (hSERT) (Homo sapiens, UniProt P31645); assay: hSERT receptor binding ([125I]-RTI-55 displacement, membranes of transfected HEK-293 cells); conditions: HEK-293 membranes, Ki from IC50 by Cheng-Prusoff, read-out: SERT Ki
T2 construct: expressed in transfected cells; host or cells: HEK-293 cells (membrane preparation)
Method in brief: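 Membranes from HEK-293 cells expressing human SERT were incubated 90 min at room temperature in Krebs-HEPES (pH 7.4) with 50 pM [125I]-RTI-55 and compound (10^-12 to 10^-5 M), in duplicate. Nonspecific binding was defined with 10 μM citalopram. Ki from IC50 by Cheng-Prusoff.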

[3] = test system: capsaicin-induced mechanical allodynia; assay: Rat model of capsaicin-induced mechanical allodynia (paw withdrawal threshold, Von Frey); type: in vivo; conditions: for inhibition in vivo at 10 mg/kg: Rattus norvegicus, po, 2 h, read-out: % inhibition +/− SEM
Description: In certain embodiments, the compounds of formula I may be assayed for their ability to alleviate capsaicin-induced mechanical allodynia in a rat (e.g., Sluka, K A, (2002) J of Neuroscience, 22(13): 5687-5693). For example, a rat model of capsaicin-induced mechanical allodynia) can be carried out as follows:
On day 0, male Sprague-Dawley rats (˜150 g) in the dark cycle are placed in suspended wire-bottom cages and allowed to acclimate for 0.5 h in a darkened, quiet room. The day 0 paw withdrawal threshold (PWT) is determined on the left hind paw by Von Frey hair assessment using the Dixon up and down method. After assessment, the plantar muscle of the right hind paw is injected with 100 μl capsaicin (0.25% in 10% ethanol, 10% Tween 80, in sterile saline). On day 6 the PWT of the left hindpaw (contralateral from injection site) is determined for each animal. Animals from the day 6 prereads with PWT≦11.7 g are considered allodynic responders and are regrouped so that each cage had similar mean PWT values. On day 7, responders are dosed (e.g., orally, intraperitoneally, and subcutaneously, etc.) with 10 ml/kg vehicle (0.5% HPMC(hydroxy-propylmethylcellulose)/0.2% Tween™ 80), or vehicle plus compound. The contralateral PWT values are determined at 2 hours (or at about the time corresponding to the estimated Cmax) after the single dose, with the investigator blinded to the dosing scheme. Those of skill in the art can determine the appropriate time to determine the contralateral PWT value (e.g., 1 hour, 2 hours, etc.).
For each animal, the day 6 PWT value is subtracted from the 2 hour PWT value to give a delta PWT value that represents the change in PWT due to the 2 hour drug treatment. In addition, the day 6 PWT is subtracted from the day 0 PWT to give the baseline window of allodynia present in each animal. To determine % inhibition of allodynia of each animal normalized for vehicle controls, the following formula is used: % Inhibition of Allodynia=100×(Delta PWT(drug)−mean Delta PWT(vehicle))/(Baseline−mean Delta PWT(vehicle)). Pharmaceutically Acceptable Salts and Solvates
Compounds of the present invention may be assayed for their ability to alleviate capsaicin-induced mechanical allodynia in a rat model (e.g., Sluka (2002) J of Neuroscience, 22(13)5687-5693). For example, a rat model of capsaicin-induced mechanical allodynia was carried out as follows:
On day 0, male Sprague-Dawley rats (˜150 g) in the dark cycle were placed in suspended wire-bottom cages and allowed to acclimate for 0.5 hour in a darkened, quiet room. The day 0 paw withdrawal threshold (PWT) was determined on the left hind paw by Von Frey hair assessment using the Dixon up and down method. After assessment, the plantar muscle of the right hind paw was injected with 100 μl capsaicin (0.25% (w/v) in 10% ethanol, 10% Tween 80, in sterile saline). On day 6 the PWT of the left hindpaw (contralateral from injection site) was determined for each animal. Animals from the day 6 prereads with PWT≦11.7 g were considered allodynic responders and were regrouped so that each cage had similar mean PWT values.
On day 7, responders were dosed subcutaneously with 30 mg of the compound of Example 7/kg body weight, 10 mg of the compound of the compound of Example 48/kg body weight, or with vehicle alone. The vehicle was phosphate buffered saline containing 2% Cremophor®) EL (BASF).
For the animals dosed with the compound of Example 7, the contralateral PWT values were determined at 2 hour after the single dose, with the investigator blinded to the dosing scheme.
For each animal, the day 6 PWT value was subtracted from the 2 hour PWT value for the 10 mg/kg doses to give a delta PWT value that represents the change in PWT due to the […] drug treatment. In addition, the day 6 PWT was subtracted from the day 0 PWT to give the baseline window of allodynia present in each animal. […]

[4] = male Sprague-Dawley rats, oral single dose 10 mg/kg, contralateral PWT at 2 hours after dose, mean of eight animals

T1 sequence (P23975 whole entry): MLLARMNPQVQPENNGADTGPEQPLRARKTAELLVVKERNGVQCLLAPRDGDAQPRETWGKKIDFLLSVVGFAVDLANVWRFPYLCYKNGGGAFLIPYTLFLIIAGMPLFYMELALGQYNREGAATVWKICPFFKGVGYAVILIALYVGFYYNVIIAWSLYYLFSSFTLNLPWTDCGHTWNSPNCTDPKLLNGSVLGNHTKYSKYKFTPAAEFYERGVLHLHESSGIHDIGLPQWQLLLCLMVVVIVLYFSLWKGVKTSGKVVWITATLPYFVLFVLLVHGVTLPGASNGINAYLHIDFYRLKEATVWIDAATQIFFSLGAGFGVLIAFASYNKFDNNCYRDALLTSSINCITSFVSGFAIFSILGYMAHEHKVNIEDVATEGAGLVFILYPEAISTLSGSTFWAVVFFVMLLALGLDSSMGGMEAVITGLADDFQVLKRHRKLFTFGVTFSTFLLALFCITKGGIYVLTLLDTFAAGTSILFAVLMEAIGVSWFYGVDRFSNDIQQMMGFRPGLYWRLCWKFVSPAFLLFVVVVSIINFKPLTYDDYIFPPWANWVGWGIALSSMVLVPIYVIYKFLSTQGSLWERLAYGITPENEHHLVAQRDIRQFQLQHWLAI
T2 sequence (P31645 whole entry): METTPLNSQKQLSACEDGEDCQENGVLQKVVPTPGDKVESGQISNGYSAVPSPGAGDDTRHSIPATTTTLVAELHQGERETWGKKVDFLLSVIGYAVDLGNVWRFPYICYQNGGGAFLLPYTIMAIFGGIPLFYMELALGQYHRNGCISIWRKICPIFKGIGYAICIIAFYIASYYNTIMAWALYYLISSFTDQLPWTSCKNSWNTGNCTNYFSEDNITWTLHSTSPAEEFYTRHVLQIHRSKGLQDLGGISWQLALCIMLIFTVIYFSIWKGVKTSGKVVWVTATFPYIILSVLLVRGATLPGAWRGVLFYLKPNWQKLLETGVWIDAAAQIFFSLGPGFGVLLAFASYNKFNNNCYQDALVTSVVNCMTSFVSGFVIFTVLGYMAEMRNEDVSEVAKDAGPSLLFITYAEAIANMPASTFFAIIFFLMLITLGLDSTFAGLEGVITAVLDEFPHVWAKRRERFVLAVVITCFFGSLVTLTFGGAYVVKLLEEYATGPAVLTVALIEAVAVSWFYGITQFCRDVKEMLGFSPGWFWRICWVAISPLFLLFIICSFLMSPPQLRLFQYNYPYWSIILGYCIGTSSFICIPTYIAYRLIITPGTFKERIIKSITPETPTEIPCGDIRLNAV

| Structure (SMILES) | Ki [1] [µM] | Ki [2] [µM] | inhibition in vivo at 10 mg/kg [3, 4] [%] | inhibition in vivo at 10 mg/kg [3] [%] | % Inhibition of Allodynia +/− SEM ([3]; male Sprague-Dawley rats, subcutaneous single dose 30 mg/kg, contralateral PWT at 2 hour after dose, mean of eight animals) | % Inhibition of Allodynia +/− SEM ([3]; male Sprague-Dawley rats, subcutaneous single dose 10 mg/kg, contralateral PWT at 1 hour after dose, mean of eight animals) [% +/− 14.8] |
| --- | --- | --- | --- | --- | --- | --- |
| Fc1ccc(F)c(-n2nc(OCC3CCCNC3)c3ccccc32)c1 (racemic) [Example 31, (±)-1-(2,5-Difluoro-phenyl)-3-(piperidin-3-ylmethoxy)-1H-indazole hydrochloride] | 0.00658 | 0.134 | 47 |  |  |  |
| Fc1ccc2c(c1)c(OCC1CCCNC1)nn2-c1ccccc1F (racemic) [Example 57, (±)-5-Fluoro-1-(2-fluoro-phenyl)-3-(piperidin-3-ylmethoxy)-1H-indazole hydrochloride] | 0.0181 | 0.0522 | 26 |  |  |  |
| Fc1ccccc1-n1nc(OC2CCNCC2)c2ccccc21 [Example 1, 1-(2-Fluorophenyl)-3-(piperidin-4-yloxy)-1H-indazole hydrochloride] | 0.00314 | 0.0511 |  | 67.7 |  |  |
| Cl.Fc1ccccc1-n1nc(OC[C@H]2CCNC2)c2ccccc21 [Example 7, (S)-(−)-1-(2-Fluorophenyl)-3-(pyrrolidin-3-ylmethoxy)-1H-indazole hydrochloride] | 0.0053 | 0.0547 | 12.2 |  | 71.5 +/− 4.6% |  |
| Fc1ccc(-n2nc(OC[C@H]3CCNC3)c3ccccc32)c(F)c1 [Example 8, (S)-1-(2,4-Difluoro-phenyl)-3-(pyrrolidin-3-ylmethoxy)-1H-indazole hydrochloride] | 0.00519 | 0.039 | 11.5 |  |  |  |
| Fc1ccc(-n2nc(OC[C@@H]3CCNC3)c3ccccc32)c(F)c1 [Example 9, (R)-1-(2,4-Difluoro-phenyl)-3-(pyrrolidin-3-ylmethoxy)-1H-indazole hydrochloride] | 0.00563 | 0.0816 | 34.1 |  |  |  |
| c1ccc(-n2nc(OC[C@@H]3CCNC3)c3ccccc32)cc1 [Example 14, (R)-1-Phenyl-3-(pyrrolidin-3-ylmethoxy)-1H-indazole hydrochloride] | 0.0131 | 0.1 | 30.8 |  |  |  |
| c1ccc(-n2nc(OC3CCNCC3)c3ccccc32)cc1 [Example 20, 1-Phenyl-3-(piperidin-4-yloxy)-1H-indazole hydrochloride] | 0.0202 | 0.122 | 41.1 |  |  |  |
| Fc1ccc(F)c(-n2nc(OC3CCNCC3)c3ccccc32)c1 [Example 27, 1-(2,5-Difluoro-phenyl)-3-(piperidin-4-yloxy)-1H-indazole hydrochloride] | 0.00634 | 0.0423 | 27 |  |  |  |
| Fc1ccc(F)c(-n2nc(OC[C@@H]3CCNC3)c3ccccc32)c1 [Example 30, (R)-1-(2,5-Difluoro-phenyl)-3-(pyrrolidin-3-ylmethoxy)-1H-indazole hydrochloride] | 0.00444 | 0.0646 | 68 |  |  |  |
| Fc1ccc(F)c(-n2nc(OC[C@H]3CCNC3)c3ccccc32)c1 [Example 32, (S)-1-(2,5-Difluoro-phenyl)-3-(pyrrolidin-3-ylmethoxy)-1H-indazole hydrochloride] | 0.00341 | 0.0336 | 60.7 |  |  |  |
| Fc1ccc(-n2nc(OC3CCNCC3)c3ccccc32)cc1 [Example 42, 1-(4-Fluoro-phenyl)-3-(piperidin-4-yloxy)-1H-indazole hydrochloride] | 0.0259 | 0.081 | 31.7 |  |  |  |
| Fc1cccc(-n2nc(OC3CCNCC3)c3ccccc32)c1 [Example 43, 1-(3-Fluoro-phenyl)-3-(piperidin-4-yloxy)-1H-indazole hydrochloride] | 0.0179 | 0.138 | 55.4 |  |  |  |
| Fc1ccc2c(c1)c(OC[C@H]1CCCNC1)nn2-c1ccccc1F [Example 45, (S)-(−)-5-Fluoro-1-(2-fluorophenyl)-3-(piperidin-3-ylmethoxy)-1H-indazole maleate] | 0.0032 | 0.0475 | 46.2 |  |  |  |
| Fc1ccc(-n2nc(OC[C@@H]3CNCCO3)c3cc(F)ccc32)c(F)c1.O=C(O)/C=C\C(=O)O [Example 48, (S)-(+)-1-(2,4-Difluorophenyl)-5-fluoro-3-(morpholin-2-ylmethoxy)-1H-indazole maleate] | 0.0102 | 0.298 |  |  |  | 74.9 |
| Fc1ccc2c(c1)c(OC1CCNCC1)nn2-c1ccccc1F [Example 51, 5-Fluoro-1-(2-fluoro-phenyl)-3-(piperidin-4-yloxy)-1H-indazole hydrochloride] | 0.0119 | 0.0537 | 26 |  |  |  |
| Fc1ccc(-n2nc(OC3CCNCC3)c3cc(F)ccc32)c(F)c1 [Example 56, 1-(2,4-Difluoro-phenyl)-5-fluoro-3-(piperidin-4-yloxy)-1H-indazole hydrochloride] | 0.00613 | 0.00999 | 11 |  |  |  |
| Fc1ccccc1-n1nc(OC2CCNCC2)c2c(F)cccc21 [Example 100, 4-Fluoro-1-(2-fluoro-phenyl)-3-(piperidin-4-yloxy)-1H-indazole hydrochloride] | 0.00463 | 0.102 | 8.7 |  |  |  |
